Measurements taken from patent US8017767B2, “Sucralose composition” (Tate & Lyle Public Limited Company, priority 2000, dated 2011).

Test: Accelerated stability test (50° C.) with pH stability test of sucralose sample solution
Format: physicochemical
Details: for Days to pH Failure / Days to pH Failure (Final Product Moisture Content) / Days to pH Failure (Initial Moisture Content) / Ph Stability: 50° C.; for Days to pH Failure: WHIRLPAK polyethylene bags, failure = pH drop ≧1.0; for Days to pH Failure / Initial pH difference: Example 2, pH at crystallizer varied; for Days to pH Failure (Final Product Moisture Content): final dried product; for Days to pH Failure (Final Product Moisture Content) / Days to pH Failure (Initial Moisture Content): Example 3; for Days to pH Failure (Initial Moisture Content): partially dried product at intermediate (initial) moisture content; for Initial pH difference: sample solution vs pH-adjusted water at time zero
Text: Label seven 6 oz. and seven 18 oz. WHIRLPAK® polyethylene bags with indelible marker for each batch being tested for stability. Accurately weigh 25 g±0.01 g of sucralose into each 6 oz. WHIRLPAK® polyethylene bag. Heat or impulse seal the 6 oz. bag to ensure air tightness. Cut off any excess polyethylene at the top of the bag above the seal. Place the 6 oz. sealed bag into the 18 oz. bag and heat or impulse seal the 18 oz. bag to ensure air tightness. Roll down the top of the 18 oz. bag above the seal and bend the metal ties to form hooks.
Place the prepared bags into an oven stabilized at 50° C.±0.5° C. by hanging them from racks by the bag hooks. The bags must be freely suspended and not touch anything. Record the time samples are placed into the oven.
The pH stability test is conducted on the sucralose at time zero (the day the samples are placed in the oven, before the sucralose is exposed to elevated temperature) and every 24 hours until the batch being tested fails the test.
Place approximately 100 ml of deionized water into a 150 ml beaker. Using 0.1 N hydrochloric acid and/or 0.1 N sodium hydroxide, adjust the pH of the water to be between 5.8 and 6.0. Record the pH reading.
Accurately weigh 5 g±0.001 g of the product to be tested and transfer it to a 50 ml volumetric flask. Dissolve and bring to the mark by adding pH-adjusted water. If the sample to be tested is one that has been exposed to heat, remove one bag of the batch being tested from the oven and allow it to cool to room temperature before opening and sampling.
Pour the solution into a 100 ml beaker containing a stir bar, and slowly stir the solution on a magnetic stirrer. Immerse the pH electrode in the sample, allow the pH reading to stabilize, and record the pH reading of the sample. If no pH drop is observed after all the bags have been tested, the experiment is void and the test must repeated with a larger number of bags.
Record (to one decimal place) the pH of both the pH-adjusted water used and the sample sucralose solution. Subtract the pH of the […]. Report the result as (−) for a pH drop and (+) for a pH gain, e.g.:
The sample fails the test if there is a pH drop of 1.0 pH unit or more. The pH stability of the batch is defined as the number of days until the pH drop between the sample solution and that of the pH adjusted water is ≧1.0.
Samples of sucralose were tested for stability using the above procedures, but using bags of different moisture permeability. All other experimental details were the same. The TYVEK®/polyethylene bags are permeable; the WHIRLPAK® bags are less permeable. The A8080 bag consists of aluminum foil laminated to low-density polyethylene, which makes it very impermeable to moisture.

[1] = package A8080 (aluminum foil laminated to low-density polyethylene), impermeable
[2] = package FF 91 TYVEK/Polyethylene, very permeable

Days to pH Failure | Days to pH Failure (Final Product Moisture Content) | Days to pH Failure (Initial Moisture Content) | Initial pH difference | Ph Stability [1] | Ph Stability [2] | Compound
7 Days | 7 Days | 13 Days | −0.02 |  |  | OC[C@H]1O[C@H](O[C@]2(CCl)O[C@H](CCl)[C@@H](O)[C@@H]2O)[C@H](O)[C@@H](O)[C@H]1Cl [Sample 39, 4,1′,6′-trichloro-4,1′,6′-trideoxy-galactosucrose]
7 Days | 7 Days | 13 Days | +0.40 |  |  | OC[C@H]1O[C@H](O[C@]2(CCl)O[C@H](CCl)[C@@H](O)[C@@H]2O)[C@H](O)[C@@H](O)[C@H]1Cl [Sample 40, 4,1′,6′-trichloro-4,1′,6′-trideoxy-galactosucrose]
5 Days | 5 Days | 12 Days | +0.40 |  |  | OC[C@H]1O[C@H](O[C@]2(CCl)O[C@H](CCl)[C@@H](O)[C@@H]2O)[C@H](O)[C@@H](O)[C@H]1Cl [Sample 41, 4,1′,6′-trichloro-4,1′,6′-trideoxy-galactosucrose]
5 Days | 5 Days | 9 Days | +0.17 |  |  | OC[C@H]1O[C@H](O[C@]2(CCl)O[C@H](CCl)[C@@H](O)[C@@H]2O)[C@H](O)[C@@H](O)[C@H]1Cl [Sample 42, 4,1′,6′-trichloro-4,1′,6′-trideoxy-galactosucrose]
5 Days | 5 Days | 8 Days | +0.29 |  |  | OC[C@H]1O[C@H](O[C@]2(CCl)O[C@H](CCl)[C@@H](O)[C@@H]2O)[C@H](O)[C@@H](O)[C@H]1Cl [Sample 43, 4,1′,6′-trichloro-4,1′,6′-trideoxy-galactosucrose]
6 Days |  |  | −0.18 |  |  | OC[C@H]1O[C@H](O[C@]2(CCl)O[C@H](CCl)[C@@H](O)[C@@H]2O)[C@H](O)[C@@H](O)[C@H]1Cl [Sample 44, 4,1′,6′-trichloro-4,1′,6′-trideoxy-galactosucrose]
7 Days |  |  | +0.17 |  |  | OC[C@H]1O[C@H](O[C@]2(CCl)O[C@H](CCl)[C@@H](O)[C@@H]2O)[C@H](O)[C@@H](O)[C@H]1Cl [Sample 45, 4,1′,6′-trichloro-4,1′,6′-trideoxy-galactosucrose]
7 Days |  |  | +0.43 |  |  | OC[C@H]1O[C@H](O[C@]2(CCl)O[C@H](CCl)[C@@H](O)[C@@H]2O)[C@H](O)[C@@H](O)[C@H]1Cl [Sample 46, 4,1′,6′-trichloro-4,1′,6′-trideoxy-galactosucrose]
 |  |  |  | 33 days | 4 days | OC[C@H]1O[C@H](O[C@]2(CCl)O[C@H](CCl)[C@@H](O)[C@@H]2O)[C@H](O)[C@@H](O)[C@H]1Cl [Sample 47, 4,1′,6′-trichloro-4,1′,6′-trideoxy-galactosucrose]
 |  |  |  | 33 days | 4 days | OC[C@H]1O[C@H](O[C@]2(CCl)O[C@H](CCl)[C@@H](O)[C@@H]2O)[C@H](O)[C@@H](O)[C@H]1Cl [sucralose, 4,1′,6′-trichloro-4,1′,6′-trideoxy-galactosucrose]
